Assay results from US20230138400A1, “METHODS AND PHARMACEUTICAL COMPOSITIONS FOR REPROGRAMING IMMUNE ENVIRONMENT IN A SUBJECT IN NEED THEREOF” (INSERM (INSTITUT NATIONAL DE LA SANTE ET DE LA RECHERCHE …, priority 2016, published 2023).

What was measured:
E0771 tumors [1] = test: Immune cells infiltrated into E0771 tumors (wild type, sh control, sh LXR) after DDA, flow cytometry; type: in vivo, mouse
From the text: FIGS. 14A-D. […] mice were grafted subcutaneously with 300 000 E0771 tumor cells knocked down for the LXR (E0771 sh LXR) or with control cells (E0771 Sh control). […] 15 days post DDA treatment, the tumor cells were collected to assess by flow cytometry the CD4 Th1 cells (CD4+ Tbet+), CD4 T regulatory (Treg: CD4+ Foxp3+), CD8 T cells cytotoxic (CTL: CD8+ granzyme +)) or not (non CTL: CD8+ Granzyme −), macrophage M1 (F4/80+ CD206− CD86+) and M2 (F4/80+ CD206+ CD86−), dendritic cells CD11c+, CD11c+CD8α+ and myeloid derived suppressive cells (MDSC: CD11b+CD11clow, LY6C+ly6Gint) infiltrated into the tumors. To observe the cytotoxic CD8 T cells, the tumor suspension was prealably stimulated 2 h in vitro with a cocktail of PMA (50 ng/ml), ionomycine (500 ng/ml) and golgistop (concentration from manufacture BD Pharmagen), then the cells were stained with specific antibodies. The bars graphs represent the ratio between (A) Th1 and Treg, (B) CTL and non CTL, (C) M1 and M2 and (D) Alls DCs (CD11c+ and CD11c+ CD8α+) and MDSC infiltrated inside the tumors: E0771 sh control or E0771 Sh LXR (knocked down for LXRβ) from mice treated or not with DDA at 0.37 ug/kg. In cells expressing the LXRβ (E0771 shcontrol cells), DDA increases the infiltration of activated immune cells (Th1, CTL, macrophages M1 and DC) and decreases the infiltration of immunosuppressives cells (Treg, non CTL, M2 and MDSC).
FIGS. 15A-D. DDA treatment decreases the percentage of T regulatory CD4 T cells and increases the activated CD4+ and CD8+ T cells inside tumors. […] When tumors were palpable (50 mm3), the animals were treated with the vehicle (empty symbol) or s.c. 0.37 μg/kg of DDA (full symbol) every 2 days, once a day. […] post treatment, the animals were sacrified to collect the tumors. The tumors were dissociated by using gentlemac technology (Miltenyi) and then the suspension of tumor cells were stimulated with 50 ng/ml of PMA (Sigma), 500 ng/ml Ionomycin (Sigma) and 1/1000 of golgi stop (ebiosicence) during 3 h at 37° C. Tumor infiltrated Lymphocytes (TIL) isolated from E0711 tumors were stained with antibodies against CD45, CD8, CD4, PD-1, Foxp3, T-bet, IFN-g, Granzym B, PD-1 as well as live/dead stain. By gating on CD45+CD4+ (A-B) or CD45+CD8+ T cells populations (C-D), the tumor-infiltrating (A) T regulatory cells (Treg; Foxp3+), (B) effector CD4+ cells (Th1; T-bet+) and (C) cytotoxic CD8 T cells (CTL; IFN-γ+Granzym B+) were analyzed by flow cytometry. The vehicle condition is normalized at 1 and the graphs are representative of three independent experiments. (D). The graph represents the percentage of PD-1 negative CD8+ cells inside tumors of mice treated with vehicle or DDA and is representative of three independent experiments.
FIGS. 17A-D. The silencing of LXRβ in tumor affects the effects of DDA on T regulatory and cytotoxic CD8+ T cells population infiltrated inside tumor. Animals grafted with E0711 tumors expressing the LXRβ (square symbol) or knockdown for the LXRβ expression (circle symbol) treated in FIG. 2 were sacrified to collect tumors, 15 days post treatment with the vehicle (empty symbol) or 0.37 μg/kg of DDA (full symbol). The tumor were dissociated by using gentlemac technology (Miltenyi), and the suspension of tumor cells obtained were stimulated with 50 ng/ml of PMA (Sigma), 500 ng/ml Ionomycin (Sigma) and 1/1000 of golgi stop (ebiosicence) during 3 h at 370 to analyze by flow cytometry the phenotype of tumor-infiltrated lymphocytes. By gating on CD45+CD4+ (A-B) or CD45+CD8+ T cells populations (C-D) as well as live/dead stain, the tumor-infiltrating (A) T regulatory cells (Treg; Foxp3+), (B) effector CD4+ cells (Th1; T-bet+) and (C) cytotoxic CD8 T cells (CTL; IFN-γ+Granzym B+) were determined.

E0771 tumors [2] = test: E0771 tumor growth analysis in C57BL/6 mice treated with DDA; type: in vivo, mouse; settings: 0.37 μg/kg or 20 mg/kg DDA IP every 5 days
Description: FIGS. 4A-C. Tumor growth analysis (A) Exponentially growing E0771 cells were collected, washed twice in PBS and resuspended in PBS (300,000 cells in 100 μl PBS). E0771 tumors were prepared by subcutaneous transplantation into the flanks of C57BL/6 mice. When tumor measured 50 mm3, the mice were treated every 5 days with 0.37 μg/kg or 20 mg/kg DDA or with the solvent vehicle (control).

E0771 tumors [3] = test: Immune cells infiltrated into E0771 tumors (wild type, sh control, sh LXR) after DDA, flow cytometry; type: in vivo, mouse; remark: listed apart in the source
[4] = system: naive CD4 T cells from the spleen of WT or LXRαβKO mice; test: Polarization of naive CD4 T cells from WT or LXRαβKO mice in presence of DDA; type: cell-based, mouse
Description: FIGS. 9A-B. Sorted naive CD4 T cells were isolated from the spleen of WT or LXRαβKO mice (collaboration with Hervé Guillou, INRA, Toulouse) and activated in the indicated Th1 or Treg polarizing conditions. These cells were cultured in the presence of increasing concentrations of DDA. After 96 hours, the percentage of (A) Th1: CD4+Tbet+IFNg+ and (B) Treg: CD4+Foxp3+IL10+ cells was measured by flow cytometry and expressed relative to the control.
FIG. 10. Sorted naive CD4 T cells were isolated from the spleen of WT or LXRαβKO mice and activated in Th2 polarizing conditions. These cells were cultured in the presence of increasing concentrations of DDA. After 96 hours, the percentage of Th2: CD4+GATA3+IL4+ cells was measured by flow cytometry and expressed relative to the control.

[5] = E0771 shcontrol, 0.37 μg/kg DDA every 2 days, 15 days (FIG. 14)
[6] = decrease expression of LXRB into the tumors (FIG. 17)
[7] = shLXRβ vs LXRβ expressing tumors (FIG. 18)
[8] = tumors expressing LXRβ, 0.37 μg/kg DDA, 15 days (FIG. 17)
[9] = wild type E0771, s.c. 0.37 μg/kg DDA every 2 days (FIG. 15)

**Q.** Which results are given for `CC(C)CCCC(C)[C@H]1CCC2C3C[C@@H](NCCc4cnc[nH]4)[C@@]4(O)C[C@@H](O)CC[C@]4(C)C3CC[C@@]21C` (stereo partly drawn) [DDA, 5a-hydroxy-6b-[2-(1H-imidazol-4-yl)ethylamino]cholestan-3b-ol]?
**A.** number of macrophages M1 infiltrated into the tumors (E0771 tumors [1]; 0.37 μg/kg DDA (FIG. 18)): increases; ratio of dendritic cells CD11+ versus MDSC (E0771 tumors [1]; 0.37 μg/kg DDA (FIG. 19)): increases; effect of DDA on immune cell infiltration (E0771 tumors [1]; E0771 shLXR cells (FIG. 14)): significantly decreased; infiltration of activated immune cells (Th1, CTL, macrophages M1 and DC) (E0771 tumors [1]; [5]): increases; infiltration of immunosuppressives cells (Treg, non CTL, M2 and MDSC) (E0771 tumors [1]; [5]): decreases; effect of DDA on T regulatory cells infiltrated into the tumors (E0771 tumors [1]; [6]): abolished; effect of DDA on activated cytotoxic CD8+ T cells infiltrated into the tumors (E0771 tumors [1]; [6]): abolished; influence of decreased LXRB expression on DDA effect on effector Th1CD4+ (E0771 tumors [1]; [6]): had no effect; LXRβ dependence of effect on macrophages M2 (E0771 tumors [1]; [7]): independent of the LXRβ; number of T regulatory cells infiltrated into the tumors (E0771 tumors [1]; [8]): decreases; number of activated cytotoxic CD8+ T cells infiltrated into the tumors (E0771 tumors [1]; [8]): increases; number of effector Th1CD4+ cells infiltrated into the tumors (E0771 tumors [1]; [8]): increases; activated CD4+ T cells inside tumors (E0771 tumors [1]; [9]): increases; activated CD8+ T cells inside tumors (E0771 tumors [1]; [9]): increases; number of T regulatory CD4 T cells inside tumors (E0771 tumors [1]; [9]): decreases; mice survival (E0771 tumors [2]): increases mice survival; tumor growth (E0771 tumors [2]): inhibits tumor growth; number of macrophages M2 infiltrated into the tumors (E0771 tumors [3]; 0.37 μg/kg DDA (FIG. 18)): decreases; number of MDSC infiltrated into the tumor (E0771 tumors [3]; 0.37 μg/kg DDA (FIG. 19)): decreases; ratio of dendritic cells CD11+ CD8α+ versus MDSC (E0771 tumors [3]; 0.37 μg/kg DDA (FIG. 19)): increases; LXRβ dependence of effect on macrophages M1 (E0771 tumors [3]; [7]): dependent of the LXRβ; effects on MDSC and dendritic cells/MDSC ratio (E0771 tumors [3]; tumors knocked-down for the LXRβ (FIG. 19)): abolished; DDA effect on Th1 differentiation ([4]; LXRαβKO mice): abrogated; DDA effect on Treg differentiation ([4]; LXRαβKO mice): abrogated; differentiation of Th0 into Th1 ([4]; WT mice, Th1 polarizing conditions, 96 h (FIG. 9)): increases; differentiation of Th0 into Treg ([4]; WT mice, Treg polarizing conditions, 96 h (FIG. 9)): decreases; Th2 differentiation ([4]; WT or LXRαβKO mice, Th2 polarizing conditions, 96 h (FIG. 10)): no impact
